According to patent US10308637B2 (LifeSci Pharmaceuticals, Inc., priority 2015, dated 2019):

Test: Contact Assay (percentage inhibition from fluorescence intensity)
Format: biochemical
Protocol: The percentage inhibition was calculated using the following equation:
[formula] where, Mean(BG) is the average value of the fluorescence intensity of the background wells and Mean(PC) is the average value of the fluorescence intensity of the positive control wells.
Table 4 provides the EC50 values of various compounds disclosed herein.

Row | Compound | EC50
1 | Cc1cc(N)nc(C)c1CNC(=O)c1ccnc(Cc2cc(F)c3ncc(Cl)cc3c2)c1 [Example 89, N-(6-amino-2,4-dimethyl-pyridin-3-ylmethyl)-2-(3-chloro-8-fluoro-quinolin-6-ylmethyl)-isonicotinamide] | ≤ 100 nM
2 | Cc1cnc2c(C#N)cc(Cc3cc(C(=O)NCc4c(C)cc(N)nc4C)ccn3)cc2c1 [Example 70, N-((6-amino-2,4-dimethylpyridin-3-yl)methyl)-2-((8-cyano-3-methylquinolin-6-yl)methyl)isonicotinamide] | ≤ 100 nM
3 | Cc1cc(N)nc(C)c1CNC(=O)c1ccnc(Cc2cc(S(C)(=O)=O)c3ncc(Cl)cc3c2)c1 [Example 67, N-((6-amino-2,4-dimethylpyridin-3-yl)methyl)-2-((3-chloro-8-(methylsulfonyl)quinolin-6-yl)methyl)isonicotinamide] | ≤ 100 nM
4 | NC(=O)c1cc(Cc2cc(C(=O)NCc3ccc4c(N)nccc4c3)ccn2)cc2cc(Cl)cnc12 [Example 64, 6-((4-(((1-aminoisoquinolin-6-yl)methyl)carbamoyl)pyridin-2-yl)methyl)-3-chloroquinoline-8-carboxamide] | ≤ 100 nM
5 | Cc1cc(N)nc(C)c1CNC(=O)c1ccnc(Cc2ccc3ncc(C4CC4)cc3c2)c1 [Example 243, N-((6-amino-2,4-dimethylpyridin-3-yl)methyl)-2-((3-cyclopropylquinolin-6-yl)methyl)isonicotinamide] | ≤ 100 nM
6 | Cc1cnc2c(C(N)=O)cc(Cc3cc(C(=O)NCc4c(C)cc(N)nc4C)ccn3)cc2c1 [Example 77, 6-((4-(((6-amino-2,4-dimethylpyridin-3-yl)methyl)carbamoyl)pyridin-2-yl)methyl)-3-methylquinoline-8-carboxamide] | ≤ 100 nM
7 | Cc1cc(N)nc(C)c1CNC(=O)c1cc(CO)nc(Cc2ccc3ncc(Cl)cc3c2)c1 [Example 212, N-((6-amino-2,4-dimethylpyridin-3-yl)methyl)-2-((3-chloroquinolin-6-yl)methyl)-6-(hydroxymethyl)isonicotinamide] | ≤ 100 nM
8 | Cc1cnc2c(S(C)(=O)=O)cc(Cc3cc(C(=O)NCc4n[nH]c5ccc(Cl)cc45)ccn3)cc2c1 [Example 20, N-((5-chloro-1H-indazol-3-yl)methyl)-2-((3-methyl-8-(methylsulfonyl)quinolin-6-yl)methyl)isonicotinamide] | ≤ 100 nM
9 | Cc1cnc2c(C#N)cc(Cc3cc(C(=O)NCc4ccc5c(N)nccc5c4)ccn3)cc2c1 [Example 71, N-((1-aminoisoquinolin-6-yl)methyl)-2-((8-cyano-3-methylquinolin-6-yl)methyl)isonicotinamide] | ≤ 100 nM
10 | Cc1nc(N)ccc1CNC(=O)c1ccnc(Cc2cc(CO)c3ncc(Cl)cc3c2)c1 [Example 97, N-((6-amino-2-methylpyridin-3-yl)methyl)-2-((3-chloro-8-(hydroxymethyl)quinolin-6-yl)methyl)isonicotinamide] | ≤ 100 nM
11 | NC(=O)c1cc(Cc2cc(C(=O)NCc3cc4cc[nH]c4cc3F)ccn2)cc2cc(Cl)cnc12 [Example 66, 3-chloro-6-((4-(((6-fluoro-1H-indol-5-yl)methyl)carbamoyl)pyridin-2-yl)methyl)quinoline-8-carboxamide] | 100 to 1000 nM
12 | Cc1cnc2c(S(C)(=O)=O)cc(Cc3cc(C(=O)NCc4c(C)cc(N)nc4C)ccn3)cc2c1 [Example 15, N-((6-amino-2,4-dimethylpyridin-3-yl)methyl)-2-((3-methyl-8-(methylsulfonyl)quinolin-6-yl)methyl)isonicotinamide] | ≤ 100 nM
13 | Cc1nc(N)ccc1CNC(=O)c1ccnc(Cc2cc(C(N)=O)c3ncc(Cl)cc3c2)c1 [Example 62, 6-((4-(((6-amino-2-methylpyridin-3-yl)methyl)carbamoyl)pyridin-2-yl)methyl)-3-chloroquinoline-8-carboxamide] | ≤ 100 nM
14 | CCc1cnc2ccc(Cc3cc(C(=O)NCc4ccc5c(N)nccc5c4)ccn3)cc2c1 [Example 283, N-((1-aminoisoquinolin-6-yl)methyl)-2-((3-ethylquinolin-6-yl)methyl)isonicotinamide] | ≤ 100 nM
15 | Cc1ccc2cc(Cc3cc(C(=O)NCc4c(C)cc(N)nc4C)ccn3)ccc2n1 [Example 113, N-((6-amino-2,4-dimethylpyridin-3-yl)methyl)-2-((2-methylquinolin-6-yl)methyl)isonicotinamide] | ≤ 100 nM
16 | Cc1nc(N)ccc1CNC(=O)c1ccnc(Cc2cc(S(C)(=O)=O)c3ncc(Cl)cc3c2)c1 [Example 69, N-((6-amino-2-methylpyridin-3-yl)methyl)-2-((3-chloro-8-(methylsulfonyl)quinolin-6-yl)methyl)isonicotinamide] | ≤ 100 nM
17 | Cc1cnc2c(C#N)cc(Cc3cc(C(=O)NCc4cnc5[nH]cc(Cl)c5c4)ccn3)cc2c1 [Example 73, N-((3-chloro-1H-pyrrolo[2,3-b]pyridin-5-yl)methyl)-2-((8-cyano-3-methylquinolin-6-yl)methyl)isonicotinamide] | 100 to 1000 nM

Now from value to compound:

Row | EC50 | Compound
18 | ≤ 100 nM | Cc1cc(N)nc(C)c1CNC(=O)c1cc(CC#N)nc(Cc2ccc3ncc(Cl)cc3c2)c1 [Example 213, N-((6-amino-2,4-dimethylpyridin-3-yl)methyl)-2-((3-chloroquinolin-6-yl)methyl)-6-(cyanomethyl)isonicotinamide]
19 | ≤ 100 nM | Cc1cc(N)nc(C)c1CNC(=O)c1ccnc(Cc2cc(Cl)c3ncc(Cl)cc3c2)c1 [Example 100, N-((6-amino-2,4-dimethylpyridin-3-yl)methyl)-2-((3,8-dichloroquinolin-6-yl)methyl)isonicotinamide]
20 | ≤ 100 nM | Cc1cc2cc(Cc3cc(C(=O)NCc4c(C)cc(N)nc4C)ccn3)ccc2cn1 [Example 145, N-((6-amino-2,4-dimethylpyridin-3-yl)methyl)-2-((3-methylisoquinolin-6-yl)methyl)isonicotinamide]
21 | ≤ 100 nM | Cc1cnc2ccc(Cc3cc(C(=O)NCc4c(C)cc(N)nc4C)ccn3)cc2c1 [Example 144, N-((6-amino-2,4-dimethylpyridin-3-yl)methyl)-2-((3-methylquinolin-6-yl)methyl)isonicotinamide]
22 | 100 to 1000 nM | Cc1cc(N)nc(C)c1CNC(=O)c1ccnc(Cc2ccc3ncc(Cl)cc3c2F)c1 [Example 102, N-((6-amino-2,4-dimethylpyridin-3-yl)methyl)-2-((3-chloro-5-fluoroquinolin-6-yl)methyl)isonicotinamide]
23 | ≤ 100 nM | Cc1cnc2c(S(N)(=O)=O)cc(Cc3cc(C(=O)NCc4ccc5c(N)nccc5c4)ccn3)cc2c1 [Example 289, N-((1-aminoisoquinolin-6-yl)methyl)-2-((3-methyl-8-sulfamoylquinolin-6-yl)methyl)isonicotinamide]
24 | ≤ 100 nM | Nc1nccc2c(F)c(CNC(=O)c3ccnc(Cc4ccc5ncc(Cl)cc5c4)c3)ccc12 [Example 178, N-((1-amino-5-fluoroisoquinolin-6-yl)methyl)-2-((3-chloroquinolin-6-yl)methyl)isonicotinamide]
25 | ≤ 100 nM | Cc1nc(N)ccc1CNC(=O)c1ccnc(Cc2cc(S(N)(=O)=O)c3ncc(Cl)cc3c2)c1 [Example 236]
26 | ≤ 100 nM | Cc1c(CNC(=O)c2ccnc(Cc3ccc4ncc(Cl)cc4c3)c2)ccc2c(N)nccc12 [Example 177, N-((1-amino-5-methylisoquinolin-6-yl)methyl)-2-((3-chloroquinolin-6-yl)methyl)isonicotinamide]
27 | ≤ 100 nM | Cc1cc(N)nc(C)c1CNC(=O)c1ccnc(Cc2cnc3cc(F)c(Cl)cc3c2)c1 [Example 226, N-((6-amino-2,4-dimethylpyridin-3-yl)methyl)-2-((6-chloro-7-fluoroquinolin-3-yl)methyl)isonicotinamide]
28 | 100 to 1000 nM | O=C(NCc1cc2c(Cl)c[nH]c2cc1F)c1ccnc(Cc2ccc3ncc(C4CC4)cc3c2)c1 [Example 245, N-((3-chloro-6-fluoro-1H-indol-5-yl)methyl)-2-((3-cyclopropylquinolin-6-yl)methyl)isonicotinamide]
29 | ≤ 100 nM | Cc1cc(CN)nc(C)c1CNC(=O)c1ccnc(Cc2ccc3ncc(C(F)(F)F)cc3c2)c1 [Example 172, N-((6-(aminomethyl)-2,4-dimethylpyridin-3-yl)methyl)-2-((3-(trifluoromethyl)quinolin-6-yl)methyl)isonicotinamide]
30 | ≤ 100 nM | Cc1cnc2c(C(N)=O)cc(Cc3cc(C(=O)NCc4cc5c(Cl)c[nH]c5cc4F)ccn3)cc2c1 [Example 78, 6-((4-(((3-chloro-6-fluoro-1H-indol-5-yl)methyl)carbamoyl)pyridin-2-yl)methyl)-3-methylquinoline-8-carboxamide]
31 | ≤ 100 nM | Nc1nccc2cc(CNC(=O)c3ccnc(Cc4ccc5ncc(C6CC6)cc5c4)c3)ccc12 [Example 247, N-((1-aminoisoquinolin-6-yl)methyl)-2-((3-cyclopropylquinolin-6-yl)methyl)isonicotinamide]
32 | ≤ 100 nM | Cc1cnc2c(C(N)=O)cc(Cc3cc(C(=O)NCc4cnc5[nH]cc(Cl)c5c4)ccn3)cc2c1 [Example 80, 6-((4-(((3-chloro-1H-pyrrolo[2,3-b]pyridin-5-yl)methyl)carbamoyl)pyridin-2-yl)methyl)-3-methylquinoline-8-carboxamide]
33 | ≤ 100 nM | Cc1cc2c(N)nccc2cc1CNC(=O)c1ccnc(Cc2ccc3ncc(Cl)cc3c2)c1 [Example 181, N-((1-amino-7-methylisoquinolin-6-yl)methyl)-2-((3-chloroquinolin-6-yl)methyl)isonicotinamide]
34 | 100 to 1000 nM | Cc1ccn2cnc(CNC(=O)c3ccnc(Cc4ccc5ncc(Cl)cc5c4)c3)c2c1 [Example 156, 2-((3-chloroquinolin-6-yl)methyl)-N-((7-methylimidazo [1,5-a]pyridin-1-yl)methyl)isonicotinamide]
35 | ≤ 100 nM | Cc1cc(N)nc(C)c1CNC(=O)c1ccnc(Cc2ccc3ncc(C(C)C)cc3c2)c1 [Example 254, N-((6-amino-2,4-dimethylpyridin-3-yl)methyl)-2-((3-isopropylquinolin-6-yl)methyl)isonicotinamide]
36 | ≤ 100 nM | Cc1nc(N)ccc1CNC(=O)c1ccnc(Cc2cc(Cl)c3ncc(Cl)cc3c2)c1 [Example 101, N-((6-amino-2-methylpyridin-3-yl)methyl)-2-((3,8-dichloroquinolin-6-yl)methyl)isonicotinamide]
